PubChem BioAssay AID1996
In brackets after ≈: the same amount, converted by molar mass.

Conditions: buffer; pH 7.4; 200.0 µM

Q: For `COC(=O)c1c(C)[nH]c(C=O)c1-c1ccccc1`, which solubility kinetic is on record?
A: The solubility kinetic was > 36.5 µg/mL.

Q: With `O=C(CN1C(=O)NC2(CCCC2)C1=O)NCc1ccc(F)cc1` as the compound, how does the solubility kinetic read?
A: The solubility kinetic was > 47.9 µg/mL.

Q: For `O=S(=O)(c1ccc(=S)[nH]c1)N1CCCC1`, which solubility kinetic is on record?
A: The solubility kinetic was > 36.6 µg/mL.

Q: For `COc1ccc(CN=Cc2c(C(=O)O)[nH]c3ccccc23)cc1`, which solubility kinetic is on record?
A: Its solubility kinetic is > 46.3 µg/mL.

Q: Which solubility kinetic does the source give for `O=C(NNC(=O)c1ccccn1)c1ccc(OC(F)F)cc1` here?
A: Its solubility kinetic is > 46.1 µg/mL.

Q: With `CCCn1nc(Oc2nc(N(C)C)nc(N(C)C)n2)ccc1=O` as the compound, how does the solubility kinetic read?
A: The solubility kinetic was > 47.9 µg/mL.

Q: Which solubility kinetic does the source give for `O=[N+]([O-])c1ccc2nc(C3CCCCC3)[nH]c2c1` here?
A: The solubility kinetic was 31.5 µg/mL (≈ 128 µM).

Q: Which solubility kinetic does the source give for `COC(=O)[C@H](CCSC)NC(=O)c1cccnc1SC` here?
A: The solubility kinetic was 38.8 µg/mL (≈ 123 µM).

Q: Which solubility kinetic does the source give for `O=C(Nc1nccs1)c1cn2ccccc2n1` here?
A: Its solubility kinetic is 36.2 µg/mL (≈ 148 µM).

Q: With `CCOC(=O)c1c(C)[nH]c(C(=O)OCc2ccccc2F)c1C` as the compound, how does the solubility kinetic read?
A: Its solubility kinetic is < 0.7 µg/mL.

Q: With `O=C(CSc1ccccn1)Nc1cccc2ccccc12` as the compound, how does the solubility kinetic read?
A: Its solubility kinetic is 29.5 µg/mL (≈ 100 µM).

Q: Which solubility kinetic does the source give for `COc1ccc2c(CC(=O)Nc3ccccc3OC)coc2c1` here?
A: The solubility kinetic was 31.4 µg/mL (≈ 101 µM).

Q: For `COC(=O)c1ccc(NCC(=O)Nc2cc(C)cc(C)c2)cc1`, which solubility kinetic is on record?
A: The solubility kinetic was 5.4 µg/mL (≈ 17.3 µM).

Q: For `O=S(=O)(Nc1ccc2c(c1)OCO2)c1ccc(F)c(F)c1`, which solubility kinetic is on record?
A: The solubility kinetic was > 47 µg/mL.

Q: Which solubility kinetic does the source give for `Cc1cc(C)nc(NCc2ccc(Cl)cc2)n1.Cl` here?
A: The solubility kinetic was 5.4 µg/mL.

Q: With `Cc1ccc2[nH]c(=S)n(-c3cccnc3)c(=O)c2c1` as the compound, how does the solubility kinetic read?
A: The solubility kinetic was 2.8 µg/mL (≈ 10.4 µM).

Q: Which solubility kinetic does the source give for `Cc1ccc2[nH]c(=O)c(-c3noc(CC(C)C)n3)cc2c1` here?
A: The solubility kinetic was 5.1 µg/mL (≈ 18 µM).

Q: Which solubility kinetic does the source give for `O=S(=O)(Nc1ccc(Cl)cn1)c1cccs1` here?
A: Its solubility kinetic is > 41.2 µg/mL.

Q: With `Cc1ccc(N)cc1S(=O)(=O)N(C)C` as the compound, how does the solubility kinetic read?
A: The solubility kinetic was > 32.1 µg/mL.

Q: Which solubility kinetic does the source give for `Cc1ccc(NC(=O)C2C3CCC(O3)C2C(=O)O)cc1Cl` (stereo not given) here?
A: The solubility kinetic was 27.8 µg/mL (≈ 89.8 µM).

Q: With `CC(=O)N1CCN(c2ccc(NC(=O)c3ccc(Cl)cc3)cc2)CC1` as the compound, how does the solubility kinetic read?
A: Its solubility kinetic is 1 µg/mL (≈ 2.79 µM).

Q: With `CCOC(=O)C1=C(c2ccccc2)NC(=S)NC1c1ccc(Cl)cc1` (stereo not given) as the compound, how does the solubility kinetic read?
A: The solubility kinetic was 5.3 µg/mL (≈ 14.2 µM).

Q: Which solubility kinetic does the source give for `Cc1csc(=Nc2ccccc2)n1CCCN1CCCC1=O` here?
A: Its solubility kinetic is > 47.3 µg/mL.

Q: With `O=C(NCc1cccnc1)c1ccc([N+](=O)[O-])cc1` as the compound, how does the solubility kinetic read?
A: Its solubility kinetic is > 38.6 µg/mL.

Q: For `CCn1ccc(C(=O)NCc2ccc3c(c2)OCO3)n1`, which solubility kinetic is on record?
A: The solubility kinetic was > 41 µg/mL.

Q: Which solubility kinetic does the source give for `CC(C)Cn1c(=S)[nH]c2cc(C(=O)O)ccc2c1=O` here?
A: The solubility kinetic was > 41.7 µg/mL.

Q: For `Brc1cccc(CNCC2CCCO2)c1` (stereo not given), which solubility kinetic is on record?
A: The solubility kinetic was > 40.5 µg/mL.

Q: Which solubility kinetic does the source give for `Cc1nccc(-c2ccc3c(c2)OCO3)n1` here?
A: Its solubility kinetic is 30.3 µg/mL (≈ 141 µM).

Q: With `COc1cc(C(=O)Nc2ccc(C(=O)c3cccs3)cc2)cc(OC)c1OC` as the compound, how does the solubility kinetic read?
A: Its solubility kinetic is 8.2 µg/mL (≈ 20.6 µM).

Q: For `O=C(NN1CCOCC1)c1cccc(Br)c1`, which solubility kinetic is on record?
A: Its solubility kinetic is > 42.8 µg/mL.

Q: With `COc1ccc(Cc2n[nH]c(=S)n2N)cc1OC` as the compound, how does the solubility kinetic read?
A: The solubility kinetic was > 39.9 µg/mL.

Q: With `O=C(Nc1cc2c3c(c1)CC(=O)N3CCC2)c1ccco1` as the compound, how does the solubility kinetic read?
A: Its solubility kinetic is 39.6 µg/mL (≈ 140 µM).

Q: Which solubility kinetic does the source give for `COCCN1C(=O)CS/C1=C(/C#N)C(=O)NCc1ccco1` here?
A: The solubility kinetic was 41.4 µg/mL (≈ 129 µM).

Q: For `O=c1[nH]cccc1-c1nc2ccccc2[nH]1`, which solubility kinetic is on record?
A: The solubility kinetic was > 31.7 µg/mL.

Q: Which solubility kinetic does the source give for `COc1cc(NC(=S)N(C)C)c(OC)cc1Cl` here?
A: Its solubility kinetic is > 41.2 µg/mL.

Q: Which solubility kinetic does the source give for `Cc1c(Cl)cccc1NC(=O)CNC(=O)C1CC(=O)N(C2CCCC2)C1` (stereo not given) here?
A: Its solubility kinetic is > 56.7 µg/mL.

Q: Which solubility kinetic does the source give for `O=C(c1cc([N+](=O)[O-])ccc1N1CCCC1)N1CCCC1` here?
A: Its solubility kinetic is > 43.4 µg/mL.

Q: With `Cc1cccc(/C=C/c2nc3ccccc3c(=O)[nH]2)c1` as the compound, how does the solubility kinetic read?
A: Its solubility kinetic is 0.6 µg/mL (≈ 2.29 µM).

Q: With `O=C(COC(=O)c1cnccn1)c1ccc(Cl)cc1` as the compound, how does the solubility kinetic read?
A: Its solubility kinetic is 38.4 µg/mL (≈ 139 µM).

Q: Which solubility kinetic does the source give for `O=C(NCC(c1cccs1)N1CCc2ccccc21)c1ccccc1` (stereo not given) here?
A: Its solubility kinetic is < 0.4 µg/mL.

Q: Which solubility kinetic does the source give for `Cl.ClCCN1C2=NCCCN2c2ccccc21` here?
A: Its solubility kinetic is > 40.8 µg/mL.

Q: Which solubility kinetic does the source give for `O=C(Cc1ccc([N+](=O)[O-])cc1)c1c(O)cc(O)cc1O` here?
A: The solubility kinetic was > 43.4 µg/mL.

Q: Which solubility kinetic does the source give for `Cc1ccc2cc(NC(=O)CC(CC(=O)O)c3ccccc3)ccc2n1` (stereo not given) here?
A: Its solubility kinetic is 47 µg/mL (≈ 135 µM).

Q: With `[O-][n+]1c2ccccc2[n+]([O-])c2cc(O)ccc21` as the compound, how does the solubility kinetic read?
A: Its solubility kinetic is > 34.2 µg/mL.

Q: For `Cc1nc(=O)c(-c2ccccc2)c(C)n1-c1ccccc1Cl`, which solubility kinetic is on record?
A: The solubility kinetic was > 46.6 µg/mL.

Q: Which solubility kinetic does the source give for `COc1ccc(C(=O)c2nc3ccccc3n2C(C)C)cc1OC` here?
A: The solubility kinetic was 46.1 µg/mL (≈ 142 µM).

Q: Which solubility kinetic does the source give for `O=C(/C=C/c1c(Cl)nc2ccccn12)Nc1ccc(F)cc1` here?
A: The solubility kinetic was 4.6 µg/mL (≈ 14.6 µM).

Q: With `Cc1cc(NC(=O)CSc2ccccn2)no1` as the compound, how does the solubility kinetic read?
A: The solubility kinetic was > 37.4 µg/mL.

Q: For `Cn1c(N)c(S(=O)(=O)N2CCCC2)c(=O)n(C)c1=O`, which solubility kinetic is on record?
A: Its solubility kinetic is > 43.2 µg/mL.

Q: With `O=C(c1ccc([N+](=O)[O-])cc1)N1CCc2ccccc21` as the compound, how does the solubility kinetic read?
A: The solubility kinetic was 1 µg/mL (≈ 3.73 µM).

Q: With `COc1ccccc1N1CCN(C(=O)c2cc(S(=O)(=O)N3CCCCC3)ccc2C)CC1.Cl` as the compound, how does the solubility kinetic read?
A: Its solubility kinetic is 68.1 µg/mL.

Q: Which solubility kinetic does the source give for `O=C(NCCCCc1ccccc1)c1ccccc1F` here?
A: Its solubility kinetic is > 40.7 µg/mL.

Q: For `COc1cc(C2NC(=O)CCC2[N+](=O)[O-])cc(OC)c1OC` (stereo not given), which solubility kinetic is on record?
A: The solubility kinetic was > 46.5 µg/mL.

Q: For `Cc1ccccc1NC(=O)CCCC(=O)c1ccccc1`, which solubility kinetic is on record?
A: Its solubility kinetic is 21.9 µg/mL (≈ 77.8 µM).

Q: For `COc1ccccc1C1C(C(C)=O)=C(O)C(=O)N1c1ccc(O)cc1` (stereo not given), which solubility kinetic is on record?
A: Its solubility kinetic is > 50.9 µg/mL.

Q: Which solubility kinetic does the source give for `CCN(C(=O)COC(=O)c1cccnc1SC)C1CCCCC1` here?
A: The solubility kinetic was > 50.5 µg/mL.

Q: For `COc1ccc(C(=O)OCC(=O)c2c(N)n(C)c(=O)n(C)c2=O)c(OC)c1OC`, which solubility kinetic is on record?
A: Its solubility kinetic is > 61.1 µg/mL.

Q: Which solubility kinetic does the source give for `CCC(=O)c1cn(CC(=O)Nc2ccc(C)cc2C)c2ccccc12` here?
A: The solubility kinetic was < 0.4 µg/mL.

Q: Which solubility kinetic does the source give for `Cc1cc(S(=O)(=O)Nc2ccc(C(=O)NCC3CCCO3)cc2)ccc1F` (stereo not given) here?
A: The solubility kinetic was 1 µg/mL (≈ 2.55 µM).

Q: With `O=C(CCc1ccccc1)Nc1nccs1` as the compound, how does the solubility kinetic read?
A: The solubility kinetic was 17.9 µg/mL (≈ 77.1 µM).
